According to US9340590B2 (priority 2011, dated 2016):
Like-named read-outs stand apart in the source and are kept apart here. Positions of bridges follow the written chain, without caps; N, C: chain ends. Non-standard residues stand in square brackets, D forms with d. Residues, ends and D or L forms follow the SMILES beside them. Gly(octyl) = CCCCCCCC[C@H](N)C(=O)O; Gly(cPent) = N[C@H](C(=O)O)C1CCCC1; 3Pal = N[C@@H](Cc1cccnc1)C(=O)O; 2Thi = N[C@@H](Cc1cccs1)C(=O)O; Tle = CC(C)(C)[C@H](N)C(=O)O; hLeu = CC(C)CC[C@H](N)C(=O)O

Key:
Experiment in all cases: cell-based
hNav1.5 = hNav1.5 (Homo sapiens, UniProt Q14524); settings: IonWorks Quattro, hNav1.5, read-out: IWQ Use Nav1.5
hNav1.7 = hNav1.7 (Homo sapiens, UniProt Q15858); assay type: cell-based; settings: IonWorks Quattro, hNav1.7, read-out: IWQ Use Nav1.7
hNav1.3 = hNav1.3 (Homo sapiens, UniProt Q9NY46); settings: IonWorks Quattro, hNav1.3, read-out: IWQ Use Nav1.3
hNav1.3, sequence (Q9NY46 whole entry, looked up): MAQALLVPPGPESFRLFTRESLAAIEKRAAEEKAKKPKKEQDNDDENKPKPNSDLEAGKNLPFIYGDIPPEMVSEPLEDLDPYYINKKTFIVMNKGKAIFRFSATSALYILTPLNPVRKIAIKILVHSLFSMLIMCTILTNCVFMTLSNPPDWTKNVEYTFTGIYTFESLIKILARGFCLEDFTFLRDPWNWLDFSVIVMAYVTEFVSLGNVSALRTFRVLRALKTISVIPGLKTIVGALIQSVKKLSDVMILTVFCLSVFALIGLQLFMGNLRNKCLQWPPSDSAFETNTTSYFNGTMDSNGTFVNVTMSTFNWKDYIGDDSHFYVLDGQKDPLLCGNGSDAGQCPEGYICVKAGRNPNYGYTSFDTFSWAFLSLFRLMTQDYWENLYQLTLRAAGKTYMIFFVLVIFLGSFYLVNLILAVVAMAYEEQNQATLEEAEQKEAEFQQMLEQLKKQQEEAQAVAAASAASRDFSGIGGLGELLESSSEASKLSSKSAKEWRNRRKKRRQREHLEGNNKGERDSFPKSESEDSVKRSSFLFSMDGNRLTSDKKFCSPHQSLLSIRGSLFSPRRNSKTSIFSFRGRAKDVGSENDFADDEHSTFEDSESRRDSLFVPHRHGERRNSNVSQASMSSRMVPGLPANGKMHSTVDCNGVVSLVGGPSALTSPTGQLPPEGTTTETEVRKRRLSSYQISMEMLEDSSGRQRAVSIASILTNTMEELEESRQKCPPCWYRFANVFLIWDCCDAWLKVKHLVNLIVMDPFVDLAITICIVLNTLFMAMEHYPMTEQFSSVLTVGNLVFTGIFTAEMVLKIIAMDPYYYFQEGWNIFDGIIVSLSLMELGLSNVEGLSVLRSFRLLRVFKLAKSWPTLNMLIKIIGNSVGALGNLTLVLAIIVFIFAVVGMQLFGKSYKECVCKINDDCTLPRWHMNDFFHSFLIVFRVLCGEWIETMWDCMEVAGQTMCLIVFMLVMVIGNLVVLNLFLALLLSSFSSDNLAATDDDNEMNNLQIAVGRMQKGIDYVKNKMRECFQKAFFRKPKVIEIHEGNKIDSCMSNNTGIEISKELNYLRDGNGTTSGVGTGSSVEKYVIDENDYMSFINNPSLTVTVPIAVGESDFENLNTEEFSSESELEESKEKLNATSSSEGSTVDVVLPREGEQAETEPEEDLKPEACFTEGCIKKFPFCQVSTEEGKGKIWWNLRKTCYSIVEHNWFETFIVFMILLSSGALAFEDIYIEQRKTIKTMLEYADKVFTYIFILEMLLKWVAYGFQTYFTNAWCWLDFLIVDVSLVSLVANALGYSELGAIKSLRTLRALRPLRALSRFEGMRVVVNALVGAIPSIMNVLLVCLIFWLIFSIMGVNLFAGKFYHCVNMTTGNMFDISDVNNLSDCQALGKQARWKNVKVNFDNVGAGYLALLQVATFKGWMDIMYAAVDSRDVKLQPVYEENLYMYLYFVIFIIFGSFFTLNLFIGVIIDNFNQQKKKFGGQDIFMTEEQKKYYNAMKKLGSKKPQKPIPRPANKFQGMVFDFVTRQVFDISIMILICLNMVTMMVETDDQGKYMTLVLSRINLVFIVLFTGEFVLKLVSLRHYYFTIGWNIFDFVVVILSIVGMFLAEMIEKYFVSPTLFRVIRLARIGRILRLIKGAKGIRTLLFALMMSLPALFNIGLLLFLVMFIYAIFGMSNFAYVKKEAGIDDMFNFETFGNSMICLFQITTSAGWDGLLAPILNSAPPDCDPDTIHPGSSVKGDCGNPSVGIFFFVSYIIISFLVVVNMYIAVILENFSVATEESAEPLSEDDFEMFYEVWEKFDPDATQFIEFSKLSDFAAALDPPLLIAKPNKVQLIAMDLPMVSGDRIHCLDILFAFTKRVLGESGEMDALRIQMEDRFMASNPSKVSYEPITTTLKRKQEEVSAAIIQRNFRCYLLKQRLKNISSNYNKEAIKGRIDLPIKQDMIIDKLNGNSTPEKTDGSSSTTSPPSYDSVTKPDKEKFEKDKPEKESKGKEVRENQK

hNav1.7, sequence (Q15858 whole entry, looked up): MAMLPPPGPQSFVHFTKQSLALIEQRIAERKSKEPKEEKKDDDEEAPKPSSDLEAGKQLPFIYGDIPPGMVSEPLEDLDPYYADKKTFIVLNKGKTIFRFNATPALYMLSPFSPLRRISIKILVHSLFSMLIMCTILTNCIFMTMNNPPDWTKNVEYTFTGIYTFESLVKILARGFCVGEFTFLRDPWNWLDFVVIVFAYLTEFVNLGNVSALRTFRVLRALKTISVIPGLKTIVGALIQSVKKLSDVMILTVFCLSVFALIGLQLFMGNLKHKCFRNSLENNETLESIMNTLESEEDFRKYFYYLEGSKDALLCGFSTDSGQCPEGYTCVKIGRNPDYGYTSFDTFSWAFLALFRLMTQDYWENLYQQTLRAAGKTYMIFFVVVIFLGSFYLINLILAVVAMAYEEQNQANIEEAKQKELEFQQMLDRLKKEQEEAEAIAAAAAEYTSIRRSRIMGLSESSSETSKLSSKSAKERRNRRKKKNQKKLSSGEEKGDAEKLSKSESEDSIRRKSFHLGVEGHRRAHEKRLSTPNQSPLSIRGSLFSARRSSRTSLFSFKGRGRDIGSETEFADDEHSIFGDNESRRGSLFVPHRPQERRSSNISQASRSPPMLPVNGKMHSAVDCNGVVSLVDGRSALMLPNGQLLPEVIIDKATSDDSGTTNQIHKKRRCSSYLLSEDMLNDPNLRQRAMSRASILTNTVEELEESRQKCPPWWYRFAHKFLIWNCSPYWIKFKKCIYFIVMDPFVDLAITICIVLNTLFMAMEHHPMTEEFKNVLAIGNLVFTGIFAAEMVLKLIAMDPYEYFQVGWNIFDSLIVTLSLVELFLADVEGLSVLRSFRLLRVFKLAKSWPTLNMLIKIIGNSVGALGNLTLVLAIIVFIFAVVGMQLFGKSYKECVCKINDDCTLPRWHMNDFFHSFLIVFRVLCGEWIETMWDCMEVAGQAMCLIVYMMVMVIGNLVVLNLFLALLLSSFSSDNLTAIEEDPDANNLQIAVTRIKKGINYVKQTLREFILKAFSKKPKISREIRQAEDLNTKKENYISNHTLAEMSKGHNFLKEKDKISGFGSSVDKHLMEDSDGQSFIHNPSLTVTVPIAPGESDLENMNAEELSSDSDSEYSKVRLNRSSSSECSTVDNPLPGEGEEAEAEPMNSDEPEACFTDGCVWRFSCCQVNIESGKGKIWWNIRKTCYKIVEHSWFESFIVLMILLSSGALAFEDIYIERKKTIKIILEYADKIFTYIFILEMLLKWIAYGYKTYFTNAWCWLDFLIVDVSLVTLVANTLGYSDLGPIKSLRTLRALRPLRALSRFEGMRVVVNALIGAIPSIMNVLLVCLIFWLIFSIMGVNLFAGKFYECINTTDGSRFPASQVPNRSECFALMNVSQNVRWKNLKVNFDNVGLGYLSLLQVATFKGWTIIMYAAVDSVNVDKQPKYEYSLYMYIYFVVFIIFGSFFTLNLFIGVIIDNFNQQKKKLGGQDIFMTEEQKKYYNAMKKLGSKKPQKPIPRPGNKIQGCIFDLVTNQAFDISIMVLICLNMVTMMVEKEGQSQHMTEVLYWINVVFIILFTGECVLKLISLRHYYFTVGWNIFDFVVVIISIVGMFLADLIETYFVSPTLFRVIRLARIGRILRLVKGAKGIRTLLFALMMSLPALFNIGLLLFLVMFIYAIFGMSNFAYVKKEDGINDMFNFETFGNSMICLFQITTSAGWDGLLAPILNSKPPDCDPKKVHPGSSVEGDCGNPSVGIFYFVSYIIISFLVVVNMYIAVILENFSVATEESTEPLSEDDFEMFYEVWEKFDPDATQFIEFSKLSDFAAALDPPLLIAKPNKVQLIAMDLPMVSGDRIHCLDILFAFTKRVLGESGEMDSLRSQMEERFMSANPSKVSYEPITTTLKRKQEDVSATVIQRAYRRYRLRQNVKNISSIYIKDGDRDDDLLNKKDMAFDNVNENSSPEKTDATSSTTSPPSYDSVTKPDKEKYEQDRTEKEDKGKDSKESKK

## CCCCCCCC[C@@H]1NC(=O)CNC(=O)[C@H](CC(C)C)NC(=O)[C@@H](NC(=O)[C@@H](N)CC(=O)O)CSSC[C@@H]2NC(=O)[C@@H]3CSSC[C@@H](C(=O)N[C@@H](CCCCN)C(=O)N[C@@H](Cc4ccc(O)cc4)C(=O)N[C@H](C(=O)N[C@@H](Cc4ccccc4)C(N)=O)C(C)C)NC(=O)[C@H](Cc4c[nH]c5ccccc45)NC(=O)[C@H](CCCCN)NC(=O)[C@H](Cc4c[nH]cn4)NC(=O)[C@H]([C@@H](C)O)NC(=O)[C@H](CCCNC(=N)N)NC(=O)[C@H](CO)NC(=O)[C@H](CSSC[C@H](NC(=O)[C@H](CCCCN)NC(=O)[C@H](CCCNC(=N)N)NC(=O)[C@H](Cc4ccccc4)NC1=O)C(=O)N[C@@H]([C@@H](C)CC)C(=O)N1CCC[C@H]1C(=O)N[C@@H](CC(=O)O)C(=O)N[C@@H](CC(N)=O)C(=O)N[C@@H](CC(=O)O)C(=O)N[C@@H](CCCCN)C(=O)N3)NC(=O)[C@H](C(C)C)NC(=O)[C@H](CC(C)C)NC(=O)[C@H](CC(N)=O)NC(=O)[C@@H]1CCCN1C(=O)[C@H](CCCNC(=N)N)NC2=O [compound 608] (H-DCLG[Gly(octyl)]FRKCIPDNDKCCRPNLVCSRTHKWCKYVF-NH2; disulfide 2-17, 9-23, 16-30)
hNav1.5; use-dependent block
  IC50: 20200 nM
hNav1.7; use-dependent block
  IC50: 11300 nM
hNav1.3; use-dependent block
  IC50: 21800 nM

## CC[C@H](C)[C@@H]1NC(=O)[C@@H]2CSSC[C@@H]3NC(=O)[C@H](C(C)C)NC(=O)[C@H](CC(C)C)NC(=O)[C@H](CC(N)=O)NC(=O)[C@@H]4CCCN4C(=O)[C@H](CCCNC(=N)N)NC(=O)[C@H](CSSC[C@H](NC(=O)[C@@H](N)CC(=O)O)C(=O)N[C@@H](CC(C)C)C(=O)NCC(=O)N[C@@H](C(C)(C)C)C(=O)N[C@@H](Cc4ccccc4)C(=O)N[C@@H](CCCNC(=N)N)C(=O)N[C@@H](CCCCN)C(=O)N2)NC(=O)[C@H](CSSC[C@@H](C(=O)N[C@@H](CCCCN)C(=O)N[C@@H](Cc2ccc(O)cc2)C(=O)N[C@H](C(=O)N[C@@H](Cc2ccccc2)C(N)=O)C(C)C)NC(=O)[C@H](Cc2c[nH]c4ccccc24)NC(=O)[C@H](CCCCN)NC(=O)[C@H](Cc2c[nH]cn2)NC(=O)[C@H]([C@@H](C)O)NC(=O)[C@H](CCCNC(=N)N)NC(=O)[C@H](CO)NC3=O)NC(=O)[C@H](CCCCN)NC(=O)[C@H](CC(=O)O)NC(=O)[C@H](CC(N)=O)NC(=O)[C@H](CC(=O)O)NC(=O)[C@@H]2CCCN2C1=O [compound 609] (H-DCLG[Tle]FRKCIPDNDKCCRPNLVCSRTHKWCKYVF-NH2; disulfide 2-17, 9-23, 16-30)
hNav1.5; use-dependent block
  IC50: 6700 nM
hNav1.7; use-dependent block
  IC50: 81 nM
hNav1.3; use-dependent block
  IC50: 260 nM

## CC[C@H](C)[C@@H]1NC(=O)[C@@H]2CSSC[C@@H]3NC(=O)[C@H](C(C)C)NC(=O)[C@H](CC(C)C)NC(=O)[C@H](CC(N)=O)NC(=O)[C@@H]4CCCN4C(=O)[C@H](CCCNC(=N)N)NC(=O)[C@H](CSSC[C@H](NC(=O)[C@@H](N)CC(=O)O)C(=O)N[C@@H](CC(C)C)C(=O)NCC(=O)N[C@@H](CCC(C)C)C(=O)N[C@@H](Cc4ccccc4)C(=O)N[C@@H](CCCNC(=N)N)C(=O)N[C@@H](CCCCN)C(=O)N2)NC(=O)[C@H](CSSC[C@@H](C(=O)N[C@@H](CCCCN)C(=O)N[C@@H](Cc2ccc(O)cc2)C(=O)N[C@H](C(=O)N[C@@H](Cc2ccccc2)C(N)=O)C(C)C)NC(=O)[C@H](Cc2c[nH]c4ccccc24)NC(=O)[C@H](CCCCN)NC(=O)[C@H](Cc2c[nH]cn2)NC(=O)[C@H]([C@@H](C)O)NC(=O)[C@H](CCCNC(=N)N)NC(=O)[C@H](CO)NC3=O)NC(=O)[C@H](CCCCN)NC(=O)[C@H](CC(=O)O)NC(=O)[C@H](CC(N)=O)NC(=O)[C@H](CC(=O)O)NC(=O)[C@@H]2CCCN2C1=O [compound 610] (H-DCLG[hLeu]FRKCIPDNDKCCRPNLVCSRTHKWCKYVF-NH2; disulfide 2-17, 9-23, 16-30)
hNav1.5; use-dependent block
  IC50: 8200 nM
hNav1.7; use-dependent block
  IC50: 11 nM
hNav1.3; use-dependent block
  IC50: 41 nM

## CC[C@H](C)[C@@H]1NC(=O)[C@@H]2CSSC[C@@H]3NC(=O)[C@H](C(C)C)NC(=O)[C@H](CC(C)C)NC(=O)[C@H](CC(N)=O)NC(=O)[C@@H]4CCCN4C(=O)[C@H](CCCNC(=N)N)NC(=O)[C@H](CSSC[C@H](NC(=O)[C@@H](N)CC(=O)O)C(=O)N[C@@H](CC(C)C)C(=O)NCC(=O)N[C@@H](CCSC)C(=O)N[C@@H](Cc4ccccc4)C(=O)N[C@@H](CCCNC(=N)N)C(=O)N[C@@H](CCCCN)C(=O)N2)NC(=O)[C@H](CSSC[C@@H](C(=O)N[C@@H](CCCCN)C(=O)N[C@@H](Cc2ccc(O)cc2)C(=O)N[C@H](C(=O)N[C@@H](Cc2ccccc2)C(N)=O)C(C)C)NC(=O)[C@H](Cc2c[nH]c4ccccc24)NC(=O)[C@H](CCCCN)NC(=O)[C@H](Cc2c[nH]cn2)NC(=O)[C@H]([C@@H](C)O)NC(=O)[C@H](CCCNC(=N)N)NC(=O)[C@H](CO)NC3=O)NC(=O)[C@H](CCCCN)NC(=O)[C@H](CC(=O)O)NC(=O)[C@H](CC(N)=O)NC(=O)[C@H](CC(=O)O)NC(=O)[C@@H]2CCCN2C1=O [compound 611] (H-DCLGMFRKCIPDNDKCCRPNLVCSRTHKWCKYVF-NH2; disulfide 2-17, 9-23, 16-30)
hNav1.5; use-dependent block
  IC50: 13300 nM
hNav1.7; use-dependent block
  IC50: 43 nM
hNav1.3; use-dependent block
  IC50: 110 nM

## CC[C@H](C)[C@@H]1NC(=O)[C@@H]2CSSC[C@@H]3NC(=O)[C@H](C(C)C)NC(=O)[C@H](CC(C)C)NC(=O)[C@H](CC(N)=O)NC(=O)[C@@H]4CCCN4C(=O)[C@H](CCCNC(=N)N)NC(=O)[C@H](CSSC[C@H](NC(=O)[C@@H](N)CC(=O)O)C(=O)N[C@@H](CC(C)C)C(=O)NCC(=O)N[C@@H](CC(C)C)C(=O)N[C@@H](Cc4ccccc4)C(=O)N[C@@H](CCCNC(=N)N)C(=O)N[C@@H](CCCCN)C(=O)N2)NC(=O)[C@H](CSSC[C@@H](C(=O)N[C@@H](CCCCN)C(=O)N[C@@H](Cc2ccc(O)cc2)C(=O)N[C@H](C(=O)N[C@@H](Cc2ccccc2)C(N)=O)C(C)C)NC(=O)[C@H](Cc2c[nH]c4ccccc24)NC(=O)[C@H](CCCCN)NC(=O)[C@H](Cc2c[nH]cn2)NC(=O)[C@H]([C@@H](C)O)NC(=O)[C@H](CCCNC(=N)N)NC(=O)[C@H](CO)NC3=O)NC(=O)[C@H](CCCCN)NC(=O)[C@H](CC(=O)O)NC(=O)[C@H](CC(N)=O)NC(=O)[C@H](CC(=O)O)NC(=O)[C@@H]2CCCN2C1=O [compound 612] (H-DCLGLFRKCIPDNDKCCRPNLVCSRTHKWCKYVF-NH2; disulfide 2-17, 9-23, 16-30)
hNav1.5; use-dependent block
  IC50: 20100 nM
hNav1.7; use-dependent block
  IC50: 57 nM
hNav1.3; use-dependent block
  IC50: 220 nM

## CC[C@H](C)[C@@H]1NC(=O)[C@@H]2CSSC[C@@H]3NC(=O)[C@H](C(C)C)NC(=O)[C@H](CC(C)C)NC(=O)[C@H](CC(N)=O)NC(=O)[C@@H]4CCCN4C(=O)[C@H](CCCNC(=N)N)NC(=O)[C@H](CSSC[C@H](NC(=O)[C@@H](N)CC(=O)O)C(=O)N[C@@H](CC(C)C)C(=O)NCC(=O)N[C@@H](Cc4cccnc4)C(=O)N[C@@H](Cc4ccccc4)C(=O)N[C@@H](CCCNC(=N)N)C(=O)N[C@@H](CCCCN)C(=O)N2)NC(=O)[C@H](CSSC[C@@H](C(=O)N[C@@H](CCCCN)C(=O)N[C@@H](Cc2ccc(O)cc2)C(=O)N[C@H](C(=O)N[C@@H](Cc2ccccc2)C(N)=O)C(C)C)NC(=O)[C@H](Cc2c[nH]c4ccccc24)NC(=O)[C@H](CCCCN)NC(=O)[C@H](Cc2c[nH]cn2)NC(=O)[C@H]([C@@H](C)O)NC(=O)[C@H](CCCNC(=N)N)NC(=O)[C@H](CO)NC3=O)NC(=O)[C@H](CCCCN)NC(=O)[C@H](CC(=O)O)NC(=O)[C@H](CC(N)=O)NC(=O)[C@H](CC(=O)O)NC(=O)[C@@H]2CCCN2C1=O [compound 613] (H-DCLG[3Pal]FRKCIPDNDKCCRPNLVCSRTHKWCKYVF-NH2; disulfide 2-17, 9-23, 16-30)
hNav1.5; use-dependent block
  IC50: 18700 nM
hNav1.7; use-dependent block
  IC50: 950 nM
hNav1.3; use-dependent block
  IC50: 3600 nM

## CC[C@H](C)[C@@H]1NC(=O)[C@@H]2CSSC[C@@H]3NC(=O)[C@H](C(C)C)NC(=O)[C@H](CC(C)C)NC(=O)[C@H](CC(N)=O)NC(=O)[C@@H]4CCCN4C(=O)[C@H](CCCNC(=N)N)NC(=O)[C@H](CSSC[C@H](NC(=O)[C@@H](N)CC(=O)O)C(=O)N[C@@H](CC(C)C)C(=O)NCC(=O)N[C@@H](Cc4cccs4)C(=O)N[C@@H](Cc4ccccc4)C(=O)N[C@@H](CCCNC(=N)N)C(=O)N[C@@H](CCCCN)C(=O)N2)NC(=O)[C@H](CSSC[C@@H](C(=O)N[C@@H](CCCCN)C(=O)N[C@@H](Cc2ccc(O)cc2)C(=O)N[C@H](C(=O)N[C@@H](Cc2ccccc2)C(N)=O)C(C)C)NC(=O)[C@H](Cc2c[nH]c4ccccc24)NC(=O)[C@H](CCCCN)NC(=O)[C@H](Cc2c[nH]cn2)NC(=O)[C@H]([C@@H](C)O)NC(=O)[C@H](CCCNC(=N)N)NC(=O)[C@H](CO)NC3=O)NC(=O)[C@H](CCCCN)NC(=O)[C@H](CC(=O)O)NC(=O)[C@H](CC(N)=O)NC(=O)[C@H](CC(=O)O)NC(=O)[C@@H]2CCCN2C1=O [compound 614] (H-DCLG[2Thi]FRKCIPDNDKCCRPNLVCSRTHKWCKYVF-NH2; disulfide 2-17, 9-23, 16-30)
hNav1.5; use-dependent block
  IC50: 4100 nM
hNav1.7; use-dependent block
  IC50: 12 nM
hNav1.3; use-dependent block
  IC50: 77 nM

## CC[C@H](C)[C@@H]1NC(=O)[C@@H]2CSSC[C@@H]3NC(=O)[C@H](C(C)C)NC(=O)[C@H](CC(C)C)NC(=O)[C@H](CC(N)=O)NC(=O)[C@@H]4CCCN4C(=O)[C@H](CCCNC(=N)N)NC(=O)[C@H](CSSC[C@H](NC(=O)[C@@H](N)CC(=O)O)C(=O)N[C@@H](CC(C)C)C(=O)NCC(=O)N[C@@H](C4CCCC4)C(=O)N[C@@H](Cc4ccccc4)C(=O)N[C@@H](CCCNC(=N)N)C(=O)N[C@@H](CCCCN)C(=O)N2)NC(=O)[C@H](CSSC[C@@H](C(=O)N[C@@H](CCCCN)C(=O)N[C@@H](Cc2ccc(O)cc2)C(=O)N[C@H](C(=O)N[C@@H](Cc2ccccc2)C(N)=O)C(C)C)NC(=O)[C@H](Cc2c[nH]c4ccccc24)NC(=O)[C@H](CCCCN)NC(=O)[C@H](Cc2c[nH]cn2)NC(=O)[C@H]([C@@H](C)O)NC(=O)[C@H](CCCNC(=N)N)NC(=O)[C@H](CO)NC3=O)NC(=O)[C@H](CCCCN)NC(=O)[C@H](CC(=O)O)NC(=O)[C@H](CC(N)=O)NC(=O)[C@H](CC(=O)O)NC(=O)[C@@H]2CCCN2C1=O [compound 615] (H-DCLG[Gly(cPent)]FRKCIPDNDKCCRPNLVCSRTHKWCKYVF-NH2; disulfide 2-17, 9-23, 16-30)
hNav1.5; use-dependent protocol
  IC50: 5600 nM
hNav1.7; use-dependent protocol
  IC50: 35 nM
hNav1.3; use-dependent protocol
  IC50: 120 nM
